# Columns and labels:
# Experiment in all cases: relative viability (nuclei count vs DMSO), 5 days (fraction); higher = more cells survive
# Daporinad + Palbociclib = compound: O=C(/C=C/c1cccnc1)NCCCCC1CCN(C(=O)c2ccccc2)CC1 [Daporinad] + CC(=O)c1c(C)c2cnc(Nc3ccc(N4CCNCC4)cn3)nc2n(C2CCCC2)c1=O [Palbociclib] (partner 0.5 µM)
# Outline: (§1)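 Relative viability divides the nuclei count in treated wells by that in vehicle wells. Lung cancer cell lines were seeded in 1536-well plates, dosed by pin tool the next day, and fixed and stained after 5 days in one step with final 0.05% Triton X-100, 1% formaldehyde and 1 ug/ml Hoechst. Dosing was a single drug or a fixed anchor-drug dose plus five library-drug doses (not always all listed) in √10 steps, and values are medians of duplicate plates imaged at 4×.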
# Daporinad + Tozasertib = compound: O=C(/C=C/c1cccnc1)NCCCCC1CCN(C(=O)c2ccccc2)CC1 [Daporinad] + Cc1cc(Nc2cc(N3CCN(C)CC3)nc(Sc3ccc(NC(=O)C4CC4)cc3)n2)n[nH]1 [Tozasertib] (partner 0.1 µM)
# Outline: as §1
# Daporinad + Alpelisib = compound: O=C(/C=C/c1cccnc1)NCCCCC1CCN(C(=O)c2ccccc2)CC1 [Daporinad] + Cc1nc(NC(=O)N2CCC[C@H]2C(N)=O)sc1-c1ccnc(C(C)(C)C(F)(F)F)c1 [Alpelisib] (partner 2 µM)
# Outline: as §1
# Daporinad + Phenformin = compound: O=C(/C=C/c1cccnc1)NCCCCC1CCN(C(=O)c2ccccc2)CC1 [Daporinad] + N=C(N)NC(=N)NCCc1ccccc1 [Phenformin] (partner 250 µM)
# Outline: as §1
Cell Line,relative viability (Daporinad + Palbociclib; first compound 0.0005 µM),relative viability (Daporinad + Palbociclib; first compound 0.001581 µM),relative viability (Daporinad + Palbociclib; first compound 0.005 µM),relative viability (Daporinad + Palbociclib; first compound 0.01581 µM),relative viability (Daporinad + Tozasertib; first compound 0.0005 µM),relative viability (Daporinad + Tozasertib; first compound 0.001581 µM),relative viability (Daporinad + Tozasertib; first compound 0.005 µM),relative viability (Daporinad + Tozasertib; first compound 0.01581 µM),relative viability (Daporinad + Alpelisib; first compound 0.0005 µM),relative viability (Daporinad + Alpelisib; first compound 0.001581 µM),relative viability (Daporinad + Alpelisib; first compound 0.005 µM),relative viability (Daporinad + Alpelisib; first compound 0.01581 µM),relative viability (Daporinad + Phenformin; first compound 0.0005 µM),relative viability (Daporinad + Phenformin; first compound 0.001581 µM),relative viability (Daporinad + Phenformin; first compound 0.005 µM),relative viability (Daporinad + Phenformin; first compound 0.01581 µM)
NCI-H650,0.351,0.423,0.329,0.367,0.691,0.853,0.738,0.835,1.08,1.24,1.32,1.38,0.45,0.422,0.522,0.507
HCC-78,0.449,0.466,0.522,0.497,0.417,–,0.357,0.637,0.296,0.368,0.285,0.425,0.619,–,0.839,0.819
NCI-H1755,0.456,0.441,0.415,0.431,0.449,0.544,0.533,0.638,0.883,0.979,0.599,0.898,0.648,0.628,0.639,0.667
NCI-H3122,0.168,0.205,0.192,0.177,0.376,0.403,0.421,0.405,0.659,0.964,0.78,0.708,0.36,0.391,0.387,0.333
NCI-H358,0.111,0.135,0.154,0.153,0.0969,0.0872,0.11,0.0799,0.833,0.984,0.887,0.834,0.297,0.404,0.445,0.303
PC-3 [JPC-3],0.548,0.54,0.535,0.553,0.864,0.896,0.938,0.952,1.03,1.03,1.15,1.04,0.494,0.481,0.478,0.471
SK-MES-1,0.332,0.303,0.329,0.352,0.85,0.948,1.08,0.865,0.841,0.894,0.947,1.03,0.657,0.695,0.738,0.545
NCI-H2347,0.447,0.447,0.419,0.384,0.597,0.636,0.504,0.596,1.11,1.22,1.02,1.08,0.53,0.319,0.447,0.379
NCI-H2228,0.67,0.745,0.529,0.811,0.264,0.201,0.322,0.294,0.744,0.87,0.702,0.898,0.352,0.301,0.311,0.417
EKVX,0.435,0.379,0.423,0.465,0.392,0.457,0.301,0.396,0.83,0.87,0.873,1.18,0.212,0.23,0.251,0.227
HOP-62,0.399,0.437,0.479,0.423,0.379,0.432,0.332,0.353,–,1.3,1.11,0.481,0.493,0.746,0.765,0.526
NCI-H2126,0.358,0.32,0.356,0.36,0.919,0.888,0.875,0.93,0.734,0.758,0.777,0.813,0.541,0.533,0.586,0.62
NCI-H1944,0.36,0.356,0.374,0.353,0.273,0.252,0.261,0.286,0.892,0.907,0.822,0.844,0.206,0.219,0.214,0.241
EPLC-272H,0.338,0.307,0.697,0.351,0.256,0.292,0.493,0.4,0.942,1.02,0.84,1.08,0.265,0.299,0.373,0.368
RERF-LC-KJ,1.08,1.06,1.09,1.07,0.559,0.45,0.562,0.517,0.811,0.893,0.88,0.98,0.376,0.443,0.537,0.477
NCI-H661,0.389,0.459,0.419,0.359,0.368,0.339,0.345,0.292,0.635,0.506,0.649,0.401,0.266,0.284,0.308,0.288
PC-14,0.564,0.522,0.601,0.339,0.688,0.633,0.606,0.709,0.985,0.97,0.913,0.897,0.357,0.633,0.488,0.4
COR-L 105,0.395,0.401,0.37,0.44,0.38,0.282,0.357,0.341,1.14,1.02,1.12,1.06,0.491,0.485,0.545,0.607
NCI-H2405,0.54,0.577,0.555,0.415,0.82,0.783,0.954,0.888,0.918,0.939,0.928,0.466,0.43,0.459,0.484,0.366
NCI-H1395,0.659,0.618,0.531,0.718,0.7,0.764,0.771,0.839,0.987,1.16,1.39,1.31,0.431,0.421,0.471,0.482

Cell Line,relative viability (Daporinad + Palbociclib; first compound 0.0005 µM),relative viability (Daporinad + Palbociclib; first compound 0.001581 µM),relative viability (Daporinad + Palbociclib; first compound 0.005 µM),relative viability (Daporinad + Palbociclib; first compound 0.01581 µM),relative viability (Daporinad + Tozasertib; first compound 0.0005 µM),relative viability (Daporinad + Tozasertib; first compound 0.001581 µM),relative viability (Daporinad + Tozasertib; first compound 0.005 µM),relative viability (Daporinad + Tozasertib; first compound 0.01581 µM),relative viability (Daporinad + Alpelisib; first compound 0.0005 µM),relative viability (Daporinad + Alpelisib; first compound 0.001581 µM),relative viability (Daporinad + Alpelisib; first compound 0.005 µM),relative viability (Daporinad + Alpelisib; first compound 0.01581 µM),relative viability (Daporinad + Phenformin; first compound 0.0005 µM),relative viability (Daporinad + Phenformin; first compound 0.001581 µM),relative viability (Daporinad + Phenformin; first compound 0.005 µM),relative viability (Daporinad + Phenformin; first compound 0.01581 µM)
NCI-H727,0.694,0.622,0.647,0.646,0.737,0.608,0.555,0.62,0.622,0.479,0.619,0.497,0.529,0.657,0.67,0.522
NCI-H1915,0.569,0.508,0.61,0.521,0.476,0.401,0.485,0.494,1.04,1.09,1.14,1.11,0.328,0.398,0.362,0.365
CAL-12T,0.332,0.445,0.342,0.143,0.324,0.325,0.158,0.124,1.28,1.04,0.832,0.411,0.523,0.613,0.296,0.188
NCI-H441,0.186,0.209,0.212,0.23,0.512,0.646,0.718,0.668,–,0.603,0.754,0.717,0.813,0.82,0.883,0.734
LXF-289,0.59,0.633,0.6,0.602,0.23,0.188,0.176,0.148,0.977,1.09,1.04,1.15,0.467,0.555,0.559,0.579
NCI-H520,0.209,0.286,0.158,0.183,0.446,0.507,0.25,0.184,0.967,0.546,0.196,0.166,0.554,0.286,0.187,0.22
NCI-H2009,0.204,0.253,0.252,0.0753,0.76,0.706,0.724,0.555,1.17,1.15,1.21,1.07,0.447,0.497,0.492,0.337
201T,0.379,0.347,0.329,0.375,0.854,0.94,1,0.958,0.983,1.05,1,0.987,0.423,0.456,0.499,0.463
NCI-H23,0.578,0.467,0.463,0.275,0.421,0.374,0.424,0.295,0.69,0.776,0.782,0.416,0.726,0.773,0.829,0.399
LOU-NH91,0.442,0.519,0.548,0.509,0.754,0.699,0.792,0.906,0.719,0.795,0.851,0.997,0.645,0.727,0.798,1.02
NCI-H2085,0.41,–,0.512,0.533,0.805,0.846,0.977,0.831,0.952,1.01,1.14,1.07,0.816,0.855,0.796,0.816
COR-L23,0.302,0.362,0.278,0.191,0.199,0.232,0.179,0.106,0.891,1.01,0.691,0.183,0.422,0.463,0.317,0.194
BEN,0.528,0.459,0.433,0.599,0.552,0.547,0.422,0.546,0.924,0.979,1.08,1.27,0.289,0.237,0.261,0.292
LK-2,0.637,0.765,0.279,0.214,0.17,0.168,0.194,0.169,0.995,1.24,0.719,0.549,0.651,0.305,0.314,0.159
NCI-H322M,0.495,0.565,0.449,0.512,0.572,0.485,0.396,0.312,0.757,0.945,0.85,0.769,0.793,0.726,0.686,0.436
ABC-1,0.87,0.558,0.793,0.904,0.186,0.185,0.179,0.209,1.21,1.18,0.969,0.989,0.257,0.244,0.285,0.285
NCI-H1666,0.653,0.679,0.624,0.69,0.619,0.635,0.655,0.701,1.04,1.13,1.23,0.881,0.586,0.563,0.602,0.562
NCI-H1993,0.583,0.563,0.719,0.706,0.62,0.576,0.633,0.656,0.696,0.67,0.685,0.688,0.536,0.553,0.535,0.578
NCI-H1975,0.565,0.602,0.613,0.705,0.789,0.742,0.661,0.692,0.69,0.602,0.755,0.678,0.435,0.404,0.457,0.401
HCC-44,0.97,0.988,1.04,0.963,0.881,1.03,1.16,1.05,0.817,0.937,0.825,0.864,0.255,0.189,0.233,0.182

# — the supplement of paper PMC10307832
